The values below come from patent publication US20230125429A1 (priority 2017, published 2023).

Data set [1] relates to mimosine-treated HepG2 cells. Put plainly: One-hour treatment of mimosine-treated HepG2 cells, live cell imaging. The data set is classed as cell-based, human.
Data set [2] relates to wild-type keratinocytes. Kind of data set: Growth of wild-type primary keratinocytes, continuous exposure. The format is cell-based, mouse. As to the method: For the neonatal mouse keratinocyte culture, the dorsal skins of neonatal wild type or Par2 knockout mice were harvested from wild type or Par2 knockout mice, respectively. The skins were incubated overnight at 4° C. in a 0.25% solution of trypsin (Life Technologies, USA) in phosphate-buffered saline (PBS) without calcium and magnesium. The epidermis was then separated from the adjoining dermis, and the dispersed epidermal cells were collected in suspension Eagle’s minimal essential medium (SMEM) (Life Technologies, USA) supplemented with glutamine and 8% calcium free fetal calf serum (FCS) (Life Technologies, USA). The cells were plated onto individual wells of 48 well plates (Corning, USA), which were pre-coated with collagen (Life Technologies, USA), at a density of 70,000 cells/well. The cell cultures were kept for 12 hours at 34° C. in a humidified incubator containing 8% CO2. Low calcium (0.05 mM) S-MEM, containing 8% FCS was then added to initiate the culture. The culture medium was changed every 2 days.
(§1) For primary hepatocytes, the seeded cells were monitored for up to 48 hours either without any treatment (as a control) or with various types of treatments. For primary keratinocytes, cells in 48-well plates were monitored either without any treatment or with various types of treatment for up to 96 hours. For HepG2, cells 96-well plates were monitored either without any treatment or with various types of treatments for up to 48 hours. The IncuCyte Zoom was set to take a set of images at fixed locations (4 per well for 96-well plates and 16 per well for 48-well plates and 12-well plates) every three hours.
To address this question, we took a genetic approach.

The subject of data set [3] is wild-type keratinocytes. Kind of data set: Growth of wild-type primary keratinocytes, short-term treatment. The data set is classed as cell-based, mouse.
Data set [4] deals with phosphorylated histone H3 (p-H3). Put plainly: Histone H3 phosphorylation in HepG2 cells (Western blot). The data set is classed as cell-based, human. As to conditions: 1 µM for 1 hour, 2 hours after mimosine release; monitored to hour 12. On the procedure: HepG2 cells were synchronized by mimosine for 28 hours and released into regular culture medium for 2 hours. […] After the treatment, cells were incubated in the regular culture condition and samples were harvested every hour from 2 to 12 hours (shown on top of the top panel). Western blots were performed to determine the relative levels of phosphorylated histone H3 (p-H3), CDK1 and beta actin (ATCB) (as controls).
After treatments, cells were harvested and protein extracts were prepared by lysis in RIPA buffer (Solarbio). Western blots were performed using specific antibodies and SuperSignal® West Pico Chemiluminescent Substrate (Pierce). Antibodies were purchased from commercial venders as described below: polyclonal rabbit anti-PAR2 antibodies (ABGENT), polyclonal rabbit anti-Beta-Actin antibodies (Cell Signaling Technology), anti-ERK (Cell Signaling Technology), anti-phosphorylated ERK (Cell Signaling Technology), anti-phosphorylated histone H3 (Abchem), anti-CDK1 (Abcam).
After the Triptonide treatments, cells were returned to regular culture condition and samples were harvested at various time points for Western blot analysis.

Data set [5] has as its system HepG2-based orthotopic xenograft tumor. The arrangement: species or system nude mice. The settings on record: mouse, in vivo.
For data set [6], the system named is primary mouse hepatocytes (PMH). Put plainly: Growth of primary mouse hepatocytes, one-hour treatment. The format is cell-based. As to conditions: as high as 320 µM.
The next data set relates to cAMP. Kind of data set: Measurement of cAMP levels in HepG2 cells. The format is cell-based, human.
In the next data set the test system is Huh7. Kind of data set: Growth inhibitory effect, one hour exposure (IncuCyte Zoom). As to conditions: Huh7, Hepatocelular carcinoma. The data set is classed as cell-based, human. On the procedure:
Cancer cell lines and immortalized human cell lines were cultured in 1640 tissue culture medium (Corning, USA) with 10% fetal bovine serum in a standard tissue culture condition of 37° C. and 5% CO2.
as §1
The one-hour exposure is intended to simulate the transient high concentrations within the liver as the results of either the first pass effects of some orally administered drugs, or of locally delivered drugs, anticipating that such a short term exposure is nevertheless sufficient to affect certain cell surface receptors without causing any significant off-target effects due to intracellular absorption. Such a strategy would also reduce false hits due to reversible cell cycle arrests.
To address this possibility, we investigated whether other cell lines, including other HCC cell lines, cell lines from other type of cancers, as well as non-cancer immortalized/transformed cell lines, were also sensitive to Triptonide. Specifically, a total of 51 human cancer cell lines, representing 10 types of human cancers (6 non-small cell lung cancer cell lines, 5 colon cancer cell lines, 5 central nerve system cancer cell lines, 8 Melanomas cell lines, 4 ovarian cancer cell lines, 4 renal cancer cell lines, 2 prostate cancer cell lines, 3 breast cancer cell lines, 7 hepatocellular carcinoma cell lines, and 4 gastric cancer cell lines) were analyzed.

A further data set deals with HepG2. The format is cell-based, human.
The subject of another data set is PKA. Put plainly: Measurement of PKA activity in HepG2 cells. The data set is classed as cell-based, human.

Entries after “also recorded” stand apart in the source; their conditions may differ.

Usually IC50 stands for the concentration that inhibits the measured activity by half. Read a low IC50 as inhibition by little substance. Turning to `CC(C)[C@]12O[C@H]1[C@@H]1O[C@@]13[C@@]1(C)CCC4=C(COC4=O)[C@@H]1C[C@@H]1O[C@@]13C2=O` [Triptonide], in data set [1], the “effect of treatment applied at hour 0 after release” value is given as “became static, but no significant accumulation of mitotic catastrophe cells” and the “sensitivity to mitotic catastrophe-inducing effect by time of treatment” value is “only sensitive when the treatment was applied at 2 hours”. Further, in the data set on wild-type keratinocytes [2] (continuous exposure), the “growth inhibitory effect, wild-type versus Par2 knockout” value is recorded as “more potent growth inhibitory effect on the Par2 wild-type PMHs than their Par2 knockout counterparts”. In the data set with wild-type keratinocytes [2] (long-term exposure, as low as 50 nM), the “toxicity to Par2-expressing primary mouse keratinocytes” value was “quite toxic”. Moreover, in the data set with wild-type keratinocytes [3], the IC50 was found to be 1290 nM and the “effect on growth of wild-type keratinocytes” value is recorded as “effective in inhibiting the growth; also recorded: complete growth inhibition; also recorded: significant growth suppressive effect”. Besides, the “level of histone H3 phosphorylation” value in data set [4] is on record as “remained very low”. For the same molecule, the “intensities of the tumor specific signal / tumor mass” value in [5] is given as “very effective in reducing the tumor mass; also recorded: reduced the tumor specific signal to the background level”. Also, the “growth inhibitory effect on PMHs” value in data set [6] is given as “no significant growth inhibitory effect”. The “amplitude of cAMP elevation versus control” value with cAMP (1 µM at 2 hours after mimosine treatment, serum-free) was “about 4 folds”. Besides, the “levels of cAMP” value with cAMP (1 µM at non-sensitive time, 4 hours after mimosine treatment) is listed as “modest elevation”. Further, the “levels of cAMP” value with cAMP (treatment 2 hours after mimosine, Trypsin 50 nM, Triptonide 1 µM, serum-free) is reported as “two waves of elevation”. Besides, the IC50 in the data set with Huh7 came out at 1740 nM. In addition, the “effect of continuous exposure on HepG2” value in the data set with HepG2 is on record as “complete death”. For the same molecule, the “levels of PKA activities, acute” value in the data set with PKA (1 µM, serum free, first 30 minutes after treatment) is on record as “two-wave elevation”. For the same molecule, the “level of PKA activity around G2/M transition” value in the data set with PKA (one-hour treatment in regular medium (Trypsin 50 nM, Triptonide 1 µM), hour 9 and 10 after mimosine) was “remained largely unchanged”.
